In patent US20240293459A1 (priority 2021, published 2024):

tested on: healthy donor PBMC (CD8+ T cells); type: cell-based, human; details: of one 48 well plate; two rounds of stimulation with peptide-pulsed autologous DCs; HLA-matched healthy donor

In order of rising “wells showing clear peptide tetramer positive CD8+ T cell population” value:
1. VYIGDPAQL (listed as Homo Sapiens) [NSP13-400, NSP13 derived HLA-A2402 peptide]  9 wells
2. KLFAAETLK [NSP13-134]  11 wells
3. TLVPQEHYV [NSP13-242]  48 wells
